{"source": "patent US20060233870A1", "about": "“Compositions and methods for drug delivery” (Noven Pharmaceuticals, Inc., priority 1999, published 2006)", "key": {"[1]": {"experiment": "solubility of the drug in the acrylic-based polymer dermal composition"}}, "data": [{"smiles": "Clc1cccc(Cl)c1N=C1NCCN1", "note": "[clonidine]", "values": [{"measurement": "solubility of clonidine in the acrylic", "setting": "[1]; in hydroxy functional acrylic compared with carboxy functional acrylic", "value": "lower solubility"}, {"measurement": "clonidine flux", "setting": "increasing amount of hydroxy functional acrylic (DT 87-2287) versus carboxy functional DT 87-2852, FIG. 3, Examples 9-11 and Comparative Example 3 plotted", "value": "increases the flux of the clonidine"}]}, {"smiles": "O=C(CCCN1CCC(O)(c2ccc(Cl)cc2)CC1)c1ccc(F)cc1", "note": "[haloperidol]", "values": [{"measurement": "solubility of the haloperidol in the dermal composition", "setting": "[1]; increasing amount of non-functional acrylic in the dermal composition", "value": "reduces the solubility of the haloperidol"}, {"measurement": "cumulative haloperidol flux", "setting": "increasing amount of non-functional acrylic (HRJ 4483) versus carboxy functional DT 87-2196, FIG. 1, Examples 2 and 4 and Comparative Example 1 plotted", "value": "flux of the haloperidol across the skin increases"}]}, {"smiles": "CN1CCCC1c1cccnc1", "note": "(centres unmarked) [nicotine]", "values": [{"measurement": "nicotine flux", "setting": "increasing amount of non-functional acrylic (HRJ 4483) versus carboxy functional DT 87-2852, FIG. 2, Examples 5-7 and Comparative Example 2 plotted", "value": "increasing flux"}]}]}
